Experimental data published in patent US5629430A, “Trifluoromethylpyrroloindolecarboxylic acid ester and process for production thereof” (Kyorin Pharmaceutical Co., Ltd., priority 1992, dated 1997).
≈ marks a conversion by molar mass, not a printed value. Read-outs that look alike come from different tables or passages of the source.

How the values were obtained:
[1] = test system: P388 mouse leukemia cells; experiment: Activity against tumor cell growth (P388, MTT, 72 h); format: cell-based; conditions: read-out: IC50 (50% growth inhibition concentration)
Summary of the method: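 P388 cells at 1.5×10^5 cells/ml in RPMI1640 with 10% FBS, 2 mM glutamine and 5 μM 2-hydroxyethyldisulfide; DMSO-dissolved compound diluted in medium, 72 h at 37 °C, 5% CO2. MTT added for 3 h, formazan dissolved in HCl-isopropanol, A540 read. IC50 from absorbance ratio versus untreated cells.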

P388 cells = experiment: Antineoplastic activity, mice having P388 cells transplanted in abdominal cavity; format: in vivo, mouse (female, CDF1 strain); conditions: next day after transplantation, >=130% effective
Protocol: (§1) The test compound was dissolved in dimethylsulfoxide, and the solution was adequately diluted with 10% Emulfore EL620(produced by Rhone Poulenc Co.) to prepare the test compound solution. The antineoplastic activity was evaluated as below.
To the abdominal cavity of a female mouse (CDF1 strain, 8 to 9 week age), 1×10^6 P388 cells were transplanted. Next day, the test medicine solution was injected intraperitonealy in a single dose. Five to eight mice were employed for the solvent-dosed control group, and two mice were employed for each of the dosed groups. The antineoplastic effect was evaluated by the ratio (T/C, %) of the average survival days of the dosed group (T) to the average survival days of the solvent-dosed control group(C). The T/C ratio of 130% or more is evaluated to be effective.
"Cured": Survived for 60 days or longer

Sarcoma-180 cells = experiment: Antineoplastic activity, mice having Sarcoma-180 cells transplanted subcutaneously; format: in vivo, mouse (female, CDR strain); conditions: Mus musculus, Sarcoma-180, iv, 144 h, tumor weighed six days after dosage, read-out: T/C (average tumor weight, dosed vs. solvent-dosed control); for response vs control in vivo at 0.5 mg/kg: i.v. 0.5 mg/kg single dose; for response vs control in vivo at 0.25 mg/kg: i.v. 0.25 mg/kg single dose
Protocol: as §1
To the lateral region of a female mouse (CDR strain, 5 to 6 week age), 3.6×10^6 to 5×10^6 Sarcoma-180 cells were transplanted subcutaneously. Next day, the test medicine solution was injected into the tail vein in a single dose. Eight to twelve mice were employed for the solvent-dosed control group, and five mice were employed for the dosed group. Six days after the dosage, the tumor was cut out, and the weight thereof was measured. The antineoplastic effect was evaluated by the ratio (T/C) of the average tumor weight of the dosed group (T) to the average tumor weight of the solvent-dosed control group (C).

Colon-26 cells = experiment: Antineoplastic activity, mice having Colon-26 cells transplanted subcutaneously; format: in vivo, mouse (female, CDF1 strain); conditions: Mus musculus, Colon 26, iv, 168 h, read-out: T/C (average tumor weight, dosed vs. solvent-dosed control); for response vs control in vivo at 0.5 mg/kg: i.v. 0.5 mg/kg single dose on sixth day
Protocol: as §1
To the lateral region of a female mouse (CDF1 strain, 8 to 12 week age), 1×10^6 Colon-26 cells were transplanted subcutaneously. On the sixth day after the transplantation, the test medicine solution-was injected into the tail vein in a single dose. Seven to twelve mice were employed for the solvent-dosed control group, and five mice were employed for the dosed group. One week after the dosage, the tumor was cut out, and the weight thereof was measured. The antineoplastic effect was evaluated by the ratio (T/C) of the average tumor weight of the dosed group (T) to the average tumor weight of the solvent-dosed control group (C).

[2] = P388 mouse leukemia cells, 72 h, 37° C., MTT
[3] = tumor weighed one week after dosage
[4] = i.v. 0.25 mg/kg single dose on sixth day, tumor weighed one week after dosage

Question: Which results are given for `COC(=O)c1c(C(F)(F)F)[nH]c2c(O)cc3c(c12)C(CCl)CN3C(=O)c1cc2cc(OC)c(OC)c(OC)c2[nH]1` (centres unmarked) [Example 6, methyl 1-chloromethyl-5-hydroxy-7-trifluoromethyl-3-(5,6,7-trimethoxy-1H-indol-2-ylcarbonyl)-1,2,3,6-tetrahydropyrrolo[3,2-e]indole-8-carboxylate]?
Answer: IC50 [1, 2]: 0.24 ng/mL (≈ 0.412 nM); T/C (average survival days, dosed vs. solvent-dosed control) (P388 cells; i.p. 0.5 mg/kg single dose): 206%

Question: How did the IC50 [1, 2] turn out when `COC(=O)c1c(C(F)(F)F)[nH]c2c(O)cc3c(c12)C(CCl)CN3C(=O)c1cc2cc(OC)ccc2[nH]1` (centres unmarked) [Example 8, Methyl 1-chloromethyl-5-hydroxy-3-(5-methoxy-1H-indol-2-ylcarbonyl)-7-trifluoromethyl-1,2,3,6-tetrahydropyrrolo[3,2-e]indole-8-carboxylate] was run?
Answer: 0.21 ng/mL (≈ 0.402 nM)

Question: What about the “T/C (average survival days, dosed vs. solvent-dosed control)” value (P388 cells; i.p. 1.0 mg/kg single dose) of the same molecule?
Answer: 198%

Question: For `COC(=O)c1c(C(F)(F)F)[nH]c2c(O)cc3c(c12)C(CCl)CN3C(=O)c1cc2cc(NC(=O)c3cc4ccccc4o3)ccc2[nH]1` (centres unmarked) [Example 10, Methyl 3-[5-[(benzofuran-2-ylcarbonyl)amino]-1H-indol-2-ylcarbonyl]-1-chloromethyl-5-hydroxy-7-trifluoromethyl-1,2,3,6-tetrahydropyrrolo[3,2-e]indole-8-carboxylate], which IC50 [1, 2] is on record?
Answer: 0.52 ng/mL (≈ 0.799 nM)

Question: What about the response vs control in vivo at 0.5 mg/kg (Sarcoma-180 cells) of the same molecule?
Answer: 15%

Question: And the response vs control in vivo at 0.5 mg/kg (Colon-26 cells; [3])?
Answer: 15%

Question: For `COC(=O)c1c(C(F)(F)F)[nH]c2c(O)cc3c(c12)C(CCl)CN3C(=O)c1cc2cc(-c3cc4ccccc4o3)ccc2[nH]1` (centres unmarked) [Example 12], which response vs control in vivo at 1 mg/kg (Sarcoma-180 cells; i.v. 1.0 mg/kg single dose) is on record?
Answer: 11%

Question: What about the response vs control in vivo at 1 mg/kg (Colon-26 cells; i.v. 1.0 mg/kg single dose on sixth day, tumor weighed one week after dosage) of the same molecule?
Answer: 16%

Question: Which IC50 [1, 2] does the source give for `COC(=O)c1c(C(F)(F)F)[nH]c2c(O)cc3c(c12)C(CCl)CN3C(=O)c1cc2cc(NC(=O)c3cc4cc(OC)c(OC)c(OC)c4[nH]3)ccc2[nH]1` (centres unmarked) [Example 13, Methyl 1-chloromethyl-5-hydroxy-7-trifluoromethyl-3-[5-[(5,6,7-trimethoxy-1H-indol-2-ylcarbonyl)amino]-1H-indol-2-ylcarbonyl]-1,2,3,6-tetrahydropyrrolo[3,2-e]indole-8-carboxylate] here?
Answer: 0.21 ng/mL (≈ 0.284 nM)

Question: And the response vs control in vivo at 0.25 mg/kg (Sarcoma-180 cells)?
Answer: 11%

Question: What about the response vs control in vivo at 0.25 mg/kg (Colon-26 cells; [4]) of the same molecule?
Answer: 17%

Question: Which results are given for `COC(=O)c1c(C(F)(F)F)[nH]c2c(O)cc3c(c12)C(CCl)CN3C(=O)c1cc2cc(NC(=O)c3cc4c(OC)c(OC)c(OC)cc4[nH]3)ccc2[nH]1` (centres unmarked) [Example 14, Methyl 1-chloromethyl-5-hydroxy-7-trifluoromethyl-3-[5-[(4,5,6-trimethoxy1H-indol-2-ylcarbonyl)amino]-1H-indol-2-ylcarbonyl]-1,2,3,6-tetrahydropyrrolo[3,2-e]indole-8-carboxylate]?
Answer: IC50 [1, 2]: 0.1 ng/mL (≈ 0.135 nM); response vs control in vivo at 0.5 mg/kg (Sarcoma-180 cells): 7%; response vs control in vivo at 0.5 mg/kg (Colon-26 cells; [3]): 5%

Question: `COC(=O)c1c(C(F)(F)F)[nH]c2c(O)cc3c(c12)C(CCl)CN3C(=O)c1cc2cc(NC(=O)c3cnc4ccccc4c3)ccc2[nH]1` (centres unmarked) [Example 16, Methyl 1-chloromethyl-5-hydroxy-3-[5-[(quinoline-3-ylcarbonyl)amino]-1H-indol-2-ylcarbonyl]-7-trifluoromethyl-1,2,3,6-tetrahydropyrrolo[3,2-e]indole-8-carboxylate] was tested. Which IC50 [1, 2] did it give?
Answer: 0.16 ng/mL (≈ 0.242 nM)

Question: What about the response vs control in vivo at 0.5 mg/kg (Sarcoma-180 cells) of the same molecule?
Answer: 17%

Question: What about the response vs control in vivo at 0.5 mg/kg (Colon-26 cells; [3]) of the same molecule?
Answer: 16%

Question: What does the source list for `COC(=O)c1c(C(F)(F)F)[nH]c2c(O)cc3c(c12)C(CCl)CN3C(=O)c1cc2cc(NC(=O)c3cc4ccccc4cn3)ccc2[nH]1` (centres unmarked) [Example 17, Methyl 1-chloromethyl-5-hydroxy-3-[5-[(isoquinolin-3-ylcarbonyl)amino]-1H-indol-2-ylcarbonyl]-7trifluoromethyl-1,2,3,6-tetrahydropyrrolo[3,2-e]indole-8-carboxylate]?
Answer: IC50 [1, 2]: 0.09 ng/mL (≈ 0.136 nM); response vs control in vivo at 0.25 mg/kg (Sarcoma-180 cells): 25%; response vs control in vivo at 0.25 mg/kg (Colon-26 cells; [4]): 18%

Question: `COC(=O)c1c(C(F)(F)F)[nH]c2c(O)cc3c(c12)C(CCl)CN3C(=O)c1cc2cc(NC(=O)c3cc4c(OC)c(OC)c(OC)cc4cn3)ccc2[nH]1` (centres unmarked) [Example 18, Methyl 1-chloromethyl-5-hydroxy-7-trifluoromethyl-3-[5-[(5,6,7-trimethoxyisoquinolin-3-ylcarbonyl)amino]-1H-indol-2-ylcarbonyl]-1,2,3,6-tetrahydropyrrolo[3,2-e]indole-8-carboxylate] was tested. Which IC50 [1, 2] did it give?
Answer: 0.09 ng/mL (≈ 0.12 nM)

Question: What about the response vs control in vivo at 0.25 mg/kg (Sarcoma-180 cells) of the same molecule?
Answer: 25%

Question: What about the response vs control in vivo at 0.25 mg/kg (Colon-26 cells; [4]) of the same molecule?
Answer: 7%

Question: What does the source list for `COC(=O)c1c(C(F)(F)F)[nH]c2c1C13CC1CN(C(=O)c1cc4cc(OC)ccc4[nH]1)C3=CC2=O` (centres unmarked) [Example 22, Methyl 2-(5-methoxy-1H-indol-2-ylcarbonyl)-6-trifluoromethyl-1,2,8,8a-tetrahydrocyclopropa[c]pyrrolo[3,2-e]indole-4 (5H)-one-7-carboxylate]?
Answer: IC50 [1, 2]: 0.23 ng/mL (≈ 0.474 nM); T/C (average survival days, dosed vs. solvent-dosed control) (P388 cells; i.p. 0.125 mg/kg single dose): 169%

Question: What does the source list for `COC(=O)c1c(C(F)(F)F)[nH]c2c(O)cc3c(c12)C(CBr)CN3C(=O)c1cc2cc(OC)c(OC)c(OC)c2[nH]1` (centres unmarked) [Example 34, methyl 1-bromomethyl-5-hydroxy-7-trifluoromethyl-3-(5,6,7-trimethoxy-1H-indol-2-ylcarbonyl)-1,2,3,6-tetrahydropyrrolo[3,2e]indole-8-carboxylate]?
Answer: IC50 [1, 2]: 0.15 ng/mL (≈ 0.239 nM); T/C (average survival days, dosed vs. solvent-dosed control) (P388 cells; i.p. 0.125 mg/kg single dose): 189%; response vs control in vivo at 0.25 mg/kg (Sarcoma-180 cells): 37%

Question: With `COC(=O)c1c(C(F)(F)F)[nH]c2c(O)cc3c(c12)C(CBr)CN3C(=O)c1cc2cc(NC(=O)c3cc4ccccc4[nH]3)ccc2[nH]1` (centres unmarked) [Example 36, Methyl 1-bromomethyl-5-hydroxy-3-[5-[(1H-indol-2-ylcarbonyl)amino]-1H-indol-2-ylcarbonyl)-7-trifluoromethyl-1,2,3,6-tetrahydropyrrolo[3,2-e]indole-8-carboxylate] as the molecule, how does the IC50 [1, 2] read?
Answer: 1.3 ng/mL (≈ 1.87 nM)

Question: And the “T/C (average survival days, dosed vs. solvent-dosed control)” value (P388 cells; i.p. 0.125 mg/kg single dose)?
Answer: 384%

Question: And the response vs control in vivo at 0.25 mg/kg (Sarcoma-180 cells)?
Answer: 14%

Question: What does the source list for `COC(=O)c1c(C(F)(F)F)[nH]c2c(OC(=O)N3CCN(C)CC3)cc3c(c12)C(CCl)CN3C(=O)c1cc2cc(OC)c(OC)c(OC)c2[nH]1` (centres unmarked) [Example 46]?
Answer: IC50 ([1]; Mus musculus, P388, 72 h): 22 ng/mL (≈ 31.1 nM); T/C (average survival days, dosed vs. solvent-dosed control) (P388 cells; i.p. 4 mg/kg single dose): 221%

Question: Which IC50 [1, 2] does the source give for `COC(=O)c1c(C(F)(F)F)[nH]c2c(O)cc3c(c12)[C@H](CCl)CN3C(=O)c1cc2cc(NC(=O)Nc3ccc4[nH]c(C(=O)N5C[C@@H](CCl)c6c5cc(O)c5[nH]c(C(F)(F)F)c(C(=O)OC)c65)cc4c3)ccc2[nH]1` [Example 108, (S,S)-3-3'-[Carbonylbis(imino-1H-indol-5,2-dicarbonyl)]bis-[1-chloromethyl-5-hydroxy-7-trifluoromethyl-1,2,3,6-tetrahydropyrrolo[3,2-e]indole-8-carboxylic acid methyl ester]] here?
Answer: 0.007 ng/mL (≈ 0.00673 nM)

Question: And the response vs control in vivo at 0.0156 mg/kg (Colon-26 cells; i.v. 0.0156 mg/kg single dose on sixth day, tumor weighed one week after dosage)?
Answer: 6%

Question: Which IC50 ([1]; Mus musculus, P388, 72 h) does the source give for `COC(=O)c1c(C(F)(F)F)[nH]c2c(OC(=O)N3CCN(C)CC3)cc3c(c12)[C@H](CCl)CN3C(=O)c1cc2cc(NC(=O)Nc3ccc4[nH]c(C(=O)N5C[C@@H](CCl)c6c5cc(OC(=O)N5CCN(C)CC5)c5[nH]c(C(F)(F)F)c(C(=O)OC)c65)cc4c3)ccc2[nH]1` [Example 109, (S,S)-3-3'-[Carbonylbis(imino-1H-indol-5,2-dicarbonyl)]bis-[1-chloromethyl-5-(4-methylpiperazin-1-ylcarbonyl)oxy-7-trifluoromethyl-1,2,3,6-tetrahydropyrrolo[3,2-e]indole-8-carboxylic acid methyl ester]] here?
Answer: 53 ng/mL (≈ 41 nM)

Question: And the response vs control in vivo at 0.25 mg/kg (Colon-26 cells)?
Answer: 7%
